According to patent US7297696B2, “Antagonists of MCP-1 function and methods of use thereof” (Telik, Inc., priority 2001, dated 2007):

Columns and labels:
Format in all cases: in vivo
apoE-deficient mice = assay: Apolipoprotein E-deficient mouse model of atherosclerosis; conditions: 50 mg/kg as food admixture for 8 weeks, high-fat diet; percent of total cross-sectional wall area
Protocol: Apolipoprotein E (apoE) is a component of several plasma lipoproteins, including chylomicrons, VLDL, and HDL. Receptor-mediated catabolism of these lipoprotein particles is mediated through the interaction of apoE with the LDL receptor (LDLR) or with LDLR-related protein (LRP). […] The efficacy of the compounds of the present invention was also evaluated using this animal model.
Male, 4 week-old apoE-deficient mice were fed on high-fat diet (15% fat, 1.25% cholesterol). The test compound was administered as food admixture for 8 weeks. At 12 weeks old, the mice were fasted for 4 hours and then sacrificed under ether anesthesia. […]
To determine cross-sectional lesion areas, the hearts were embedded in OCT compound and sectioned at 10 μm using cryostat. The sections were stained with oil red O. Each section of the aortic valve was evaluated for oil red O staining by capturing images directly from a RGB camera attached to a light microscope; image analysis was performed with the IPAP-WIN software (Sumika Tekno, Japan). Five sections were examined for each animal, and the sum of the lesion areas was calculated and expressed as the percent of the total cross-sectional wall area. Total cholesterol was determined with a Determiner assay kit (Kyowa Medex, Japan).

ICR male mice = assay: Thioglycollate-induced inflammation model; conditions: peritoneal cavity, 96 h; 10 mg/kg subcutaneous at 0 h, 3 h and 16 hours
Protocol: 3% Brewer's thioglycollate broth (Difco, Detroit, Mich.) was injected into the petitoneal cavity of ICR male mice, followed by subcutaneous administration of the test compounds at the same dose after 0 h, 3 h and 16 hours. After 96 h, the number of total elicited cells and MOMA2-positive cells in the peritoneal cavity was analyzed using an EPICS XL Beckman Coulter.

male ICR mice = assay: Caerulein-induced pancreatitis; conditions: 20 mg/kg orally after caerulein injection, then at 3 h and 6 h; blood after 15 h
Protocol: Caerulein was injected intraperitoneally to male ICR mice every 1 h for 6 h. The test compound was given orally immediately after the caerulein injection, and then again at 3 h and 6 h. After 15 h, the mice were sacrificed and their blood was collected and analyzed for serum amylase activity as a marker of pancreatitis.

Row | Compound | % Atherosclerotic Lesion (mean ± SD) (apoE-deficient mice) [%] | MOMA2-positive Cells (ICR male mice) | Total Cells (ICR male mice) | Serum Amylase Level (U, Caraway, mean ± SD) (male ICR mice)
1 | O=C(O)COc1ccc(NC(=O)NC(=O)c2ccc3c(c2)OCCO3)cc1Cl [Compound 55, 2-(4-{[(2H,3H-Benzo[e]1,4-dioxan-6-ylcarbonylamino)carbonyl]amino}-2-chlorophenoxy)acetic acid] | 17.80 ± 3.43 | 10.1 ± 1.5 ×10^6 | 14.1 ± 1.6 ×10^6 | 
2 | O=C(NC(=O)c1ccc2c(c1)OCCO2)Nc1ccc(C(=O)[O-])c(Cl)c1.[Na+] [Compound 57, Sodium 4-{[(2H,3H-benzo[e]1,4-dioxan-6-ylcarbonylamino)carbonyl]amino}-2-chlorobenzoate] |  |  |  | 551 ± 157 U, Caraway
3 | O=C(NC(=O)c1ccc2c(c1)OCCO2)Nc1ccc(C(=O)[O-])cc1.[Na+] [Compound 59, Sodium 4-{[(2H,3H-benzo[3,4-e]1,4-dioxin-6-ylcarbonylamino)carbonyl]amino}benzoate] | 21.08 ± 6.86 | 13.2 ± 1.4 ×10^6 | 17.3 ± 1.7 ×10^6 | 
